Data from publication PMC6128596, “Cyclooxygenase pathway mediates the inhibition of Na-glutamine co-transporter B0AT1 in rabbit villus cells during chronic intestinal inflammation” (PLoS ONE, 2018).

Test system: T1, B0AT1
T1 construct: gene SLC6A19; native full-length transporter in brush border membrane vesicles from rabbit ileal villus cells; not purified
Assay: Na-dependent [3H]glutamine uptake into villus BBMV, […] s, rapid filtration
Type: biochemical, Oryctolagus cuniculus
Settings: control (normal) rabbits; 0.2-100 mM glutamine; 100 mM NaCl versus choline chloride; pH 7.5; 3H-glutamine tracer

NC(=O)CC[C@H](N)C(=O)O [glutamine]
Km: 24.6 ± 1.8 mM
